According to article PMC4627656, “Combining Metabolite-Based Pharmacophores with Bayesian Machine Learning Models for Mycobacterium tuberculosis Drug Discovery” (PLoS ONE, 2015):
Converted amounts (≈) assume the structure as drawn.

test system: Mtb H37Rv strain; experiment: Resazurin (Alamar Blue) MIC assay against replicating Mtb; assay type: cell-based, Mycobacterium tuberculosis; settings: Mycobacterium tuberculosis, H37RV, in vitro cultured Mtb H37Rv; lowest concentration inhibiting ≥90% growth; initial hits, quinoxaline di-N-oxides, positive controls; read-out: Mtb MIC (H37Rv)

| SMILES | MIC [µg/mL] |
| --- | --- |
| O=C(NCc1ccccn1)c1ccccc1[N+](=O)[O-] [BAS 00623753, 2-nitro-N-pyridin-2-ylmethyl-benzamide] | 5 (≈ 19.4 µM) |
| c1coc(CNCc2c[nH]c3ccccc23)c1 [BAS 7571651, furan-2-ylmethyl-(1H-indol-3-ylmethyl)-amine] | 40 (≈ 177 µM) |
| CO[C@H]1/C=C/O[C@@]2(C)Oc3c(C)c(O)c4c(O)c(c(/C=N/N5CCN(C)CC5)c(O)c4c3C2=O)NC(=O)/C(C)=C\C=C\[C@H](C)[C@H](O)[C@@H](C)[C@@H](O)[C@@H](C)[C@H](OC(C)=O)[C@@H]1C [Rifampicin, reference compound] | 0.0031 to 0.012 (≈ 0.00377 to 0.0146 µM) |
| CC(=O)c1c(C)[n+]([O-])c2ccc(Cl)cc2[n+]1[O-] [SRI4] | 5 (≈ 19.8 µM) |
| Cc1c(C(=O)c2ccccc2)[n+]([O-])c2cc(Cl)ccc2[n+]1[O-] [SRI8] | 10 (≈ 31.8 µM) |
| COc1ccc2c(c1)[n+]([O-])c(C)c(C(=O)c1ccccc1)[n+]2[O-] [SRI9] | 5 (≈ 16.1 µM) |
| Cc1c(C(=O)c2ccccc2)[n+]([O-])c2ccc([N+](=O)[O-])cc2[n+]1[O-] [SRI10] | 5 (≈ 15.4 µM) |
| COc1ccc2c(c1)[n+]([O-])c(C(=O)c1cccnc1)c(C)[n+]2[O-] [SRI12] | 0.64 (≈ 2.06 µM) |
| CCCCC(=O)c1c(C)[n+]([O-])c2ccc(Cl)cc2[n+]1[O-] [SRI17] | 2.5 (≈ 8.48 µM) |
| Cc1c(C(=O)CC(C)C)[n+]([O-])c2cc(Cl)ccc2[n+]1[O-] [SRI18] | 10 (≈ 33.9 µM) |
| CCCCCC(=O)c1c(C)[n+]([O-])c2cc(Cl)ccc2[n+]1[O-] [SRI20] | 5 (≈ 16.2 µM) |
| C=CCCC(=O)c1c(C)[n+]([O-])c2cc(Cl)ccc2[n+]1[O-] [SRI22] | 5 (≈ 17.1 µM) |
| CCC(=O)c1c(CC)[n+]([O-])c2cc(Cl)ccc2[n+]1[O-] [SRI23] | 5 (≈ 17.8 µM) |
| CCC(=O)c1c(CC)[n+]([O-])c2ccc(Cl)cc2[n+]1[O-] [SRI24] | 10 (≈ 35.6 µM) |
| Cc1c(C(=O)C2CC2)[n+]([O-])c2ccc(Cl)cc2[n+]1[O-] [SRI25] | 5 (≈ 17.9 µM) |
| Cc1c(C(=O)C(C)C)[n+]([O-])c2ccc(Cl)cc2[n+]1[O-] [SRI27] | > 40 |
| Cc1c(C(=O)C(C)C)[n+]([O-])c2cc(Cl)ccc2[n+]1[O-] [SRI28] | 10 (≈ 35.6 µM) |
| CCCCC(=O)c1c(C)[n+]([O-])c2cc(C)ccc2[n+]1[O-] [SRI30] | 5 (≈ 18.2 µM) |
| CCC(=O)c1c(CC)[n+]([O-])c2cc(C)ccc2[n+]1[O-] [SRI32] | 5 (≈ 19.2 µM) |
| Cc1ccc2c(c1)[n+]([O-])c(C)c(C(=O)CC(C)C)[n+]2[O-] [SRI34] | 20 (≈ 72.9 µM) |
| COc1ccc2c(c1)[n+]([O-])c(C(=O)CC(C)C)c(C)[n+]2[O-] [SRI43] | 20 (≈ 68.9 µM) |
| CC(C)=CCC/C(C)=C/CCC(=O)c1c(C)[n+]([O-])c2ccc(C)cc2[n+]1[O-] [SRI48] | 5 (≈ 13.6 µM) |
| Cc1c(C(=O)O)[n+]([O-])c2ccccc2[n+]1[O-] [SRI53] | > 40 |
| Cc1c(C(=O)c2cccnc2)[n+]([O-])c2cc(Cl)c(Cl)cc2[n+]1[O-] [SRI55] | 2.5 (≈ 7.14 µM) |
| NNC(=O)c1ccncc1 [isoniazid, reference compound] | 0.0031 to 0.012 (≈ 0.0226 to 0.0875 µM) |

same assay, conditions: Mycobacterium tuberculosis, H37RV, read-out: Mtb MIC (H37Rv), synthesized BAS 00623753 and arylamide analogs (Table 1)

| SMILES | MIC [µg/mL] |
| --- | --- |
| O=C(NCc1ccccn1)c1ccccc1[N+](=O)[O-] [BAS 00623753, 2-nitro-N-pyridin-2-ylmethyl-benzamide] | ≥ 50 |

same assay, conditions: Mycobacterium tuberculosis, H37RV, synthesized BAS 00623753 and arylamide analogs (Table 1); read-out: Mtb MIC (H37Rv)

| SMILES | MIC [µg/mL] |
| --- | --- |
| CC(C)(NC(=O)c1ccccc1[N+](=O)[O-])c1ncccn1 [JSF-2176] | > 50 |
| O=C(NCc1ncccn1)c1ccccc1[N+](=O)[O-] [JSF-2178] | > 50 |

same assay, conditions: in vitro cultured Mtb H37Rv; lowest concentration inhibiting ≥90% growth; initial hits, quinoxaline di-N-oxides, positive controls

| SMILES | Mtb MIC (H37Rv) [µg/mL] |
| --- | --- |
| O=C(NCc1ccccn1)c1ccccc1[N+](=O)[O-] [BAS 00623753, 2-nitro-N-pyridin-2-ylmethyl-benzamide] | 5 |
| CC(=O)c1c(C)[n+]([O-])c2ccc(C)cc2[n+]1[O-] [SRI2] | 5.0 |
| COc1ccc2c(c1)[n+]([O-])c(C(C)=O)c(C)[n+]2[O-] [SRI3] | 10 |
| CC(=O)c1c(C)[n+]([O-])c2cc([N+](=O)[O-])ccc2[n+]1[O-] [SRI5] | 2.5 |
| Cc1ccc2c(c1)[n+]([O-])c(C)c(C(=O)c1ccccc1)[n+]2[O-] [SRI6] | >40 |
| Cc1c(C(=O)c2ccccc2)[n+]([O-])c2ccc(Cl)cc2[n+]1[O-] [SRI7] | 5 |
| Cc1c(C(=O)c2cccnc2)[n+]([O-])c2ccc(Cl)cc2[n+]1[O-] [SRI11] | 10 |
| Cc1c(C(=O)c2cccnc2)[n+]([O-])c2ccc([N+](=O)[O-])cc2[n+]1[O-] [SRI13] | 20 |
| Cc1ccc2c(c1)[n+]([O-])c(C)c(C(=O)C(F)(F)F)[n+]2[O-] [SRI14] | 10 |
| COc1ccc2c(c1)[n+]([O-])c(C)c(C(=O)C(F)(F)F)[n+]2[O-] [SRI15] | 10 |
| CCCCC(=O)c1c(C)[n+]([O-])c2cc(Cl)ccc2[n+]1[O-] [SRI16] | 5 |
| Cc1c(C(=O)CC(C)C)[n+]([O-])c2ccc(Cl)cc2[n+]1[O-] [SRI19] | 5 |
| CCCCCC(=O)c1c(C)[n+]([O-])c2ccc(Cl)cc2[n+]1[O-] [SRI21] | 10 |
| Cc1c(C(=O)C2CC2)[n+]([O-])c2cc(Cl)ccc2[n+]1[O-] [SRI26] | 5 |
| CC(C)=CCCC(=O)c1c(C)[n+]([O-])c2cc(Cl)ccc2[n+]1[O-] [SRI29] | 5 |
| CCCCCC(=O)c1c(C)[n+]([O-])c2cc(C)ccc2[n+]1[O-] [SRI31] | 20 |
| Cc1ccc2c(c1)[n+]([O-])c(C)c(C(=O)C1CC1)[n+]2[O-] [SRI33] | 5 |
| C=CCCC(=O)c1c(C)[n+]([O-])c2cc(C)ccc2[n+]1[O-] [SRI35] | 4.3 |

| SMILES | Mtb MIC (H37Rv) [µg/mL] |
| --- | --- |
| CC(C)=CCCC(=O)c1c(C)[n+]([O-])c2cc(C)ccc2[n+]1[O-] [SRI36] | 10 |
| CCC(=O)c1c(C)[n+]([O-])c2ccc(C)cc2[n+]1[O-] [SRI37] | 10 |
| Cc1ccc2c(c1)[n+]([O-])c(C)c(C(=O)C(C)C)[n+]2[O-] [SRI38] | 10 |
| CCCCC(=O)c1c(C)[n+]([O-])c2ccc(OC)cc2[n+]1[O-] [SRI39] | 10 |
| CCCCCC(=O)c1c(C)[n+]([O-])c2ccc(OC)cc2[n+]1[O-] [SRI40] | >40 |
| CCC(=O)c1c(CC)[n+]([O-])c2ccc(OC)cc2[n+]1[O-] [SRI41] | 40 |
| C=CCCC(=O)c1c(C)[n+]([O-])c2ccc(OC)cc2[n+]1[O-] [SRI44] | 20 |
| COc1ccc2c(c1)[n+]([O-])c(C(=O)CCC=C(C)C)c(C)[n+]2[O-] [SRI45] | 20 |
| CCC(=O)c1c(C)[n+]([O-])c2ccc(OC)cc2[n+]1[O-] [SRI46] | 20 |
| COc1ccc2c(c1)[n+]([O-])c(C(=O)CC/C=C(\C)CCC=C(C)C)c(C)[n+]2[O-] [SRI47] | 20 |
| CC(C)=CCC/C(C)=C/CCC(=O)c1c(C)[n+]([O-])c2ccc(Cl)cc2[n+]1[O-] [SRI49] | 5 |
| CC(C)=CCC/C(C)=C/CCC(=O)c1c(C)[n+]([O-])c2ccccc2[n+]1[O-] [SRI51] | 5 |
| Cc1c(C(=O)O)[n+]([O-])c2ccccc2[n+]1[O-] [SRI53] | >40 |
| CCCCCC(=O)c1c(C)[n+]([O-])c2cc(Cl)c(Cl)cc2[n+]1[O-] [SRI59] | 2.5 |
| Cc1c(C(=O)CC(C)C)[n+]([O-])c2cc(Cl)c(Cl)cc2[n+]1[O-] [SRI60] | 2.5 |
| C=CCCC(=O)c1c(C)[n+]([O-])c2cc(Cl)c(Cl)cc2[n+]1[O-] [SRI61] | 2.5 |
| Cc1c(C(=O)c2ccccc2)[n+]([O-])c2cc(Cl)c(Cl)cc2[n+]1[O-] [SRI62] | 2.5 |

same assay, conditions: synthesized BAS 00623753 and arylamide analogs (Table 1)

| SMILES | Mtb MIC (H37Rv) [µg/mL] |
| --- | --- |
| O=C(NCc1ccccn1)c1ccccc1 [JSF-2133] | >50 |
| O=C(NCCc1ccccn1)c1ccccc1[N+](=O)[O-] [JSF-2170] | >50 |
| O=C(NCc1cnccn1)c1ccccc1[N+](=O)[O-] [JSF-2171] | >50 |
| Cc1cccnc1CNC(=O)c1ccccc1[N+](=O)[O-] [JSF-2172] | >50 |
| Cc1ccnc(CNC(=O)c2ccccc2[N+](=O)[O-])c1 [JSF-2173] | >50 |
| O=C(NCc1ccc(Cl)cn1)c1ccccc1[N+](=O)[O-] [JSF-2174] | >50 |
| Cc1ccc(CNC(=O)c2ccccc2[N+](=O)[O-])nc1 [JSF-2175] | >50 |
| O=C(NCc1ccncn1)c1ccccc1[N+](=O)[O-] [JSF-2177] | >50 |
| O=C(NCc1ccccn1)c1ccccc1F [JSF-2208] | >50 |
| Cc1ccccc1C(=O)NCc1ccccn1 [JSF-2209] | >50 |
| O=C(NCc1ccccn1)c1ccccc1[N+](=O)[O-] [JSF-2210] | >50 |
| O=C(NCc1ccccn1)c1ccccc1C(F)(F)F [JSF-2211] | >50 |

test system: not listed separately; experiment: in vitro; settings: African green monkey

| SMILES | CC50 at 72 h [µg/mL] |
| --- | --- |
| CC(=O)c1c(C)[n+]([O-])c2ccc(Cl)cc2[n+]1[O-] [SRI4] | > 40 |
| COc1ccc2c(c1)[n+]([O-])c(C(=O)c1cccnc1)c(C)[n+]2[O-] [SRI12] | 1.7 (≈ 5.46 µM) |
| Cc1c(C(=O)c2cccnc2)[n+]([O-])c2cc(Cl)c(Cl)cc2[n+]1[O-] [SRI55] | > 40 |
